Data reported in patent US10668090B2, “Liver specific delivery-based antiviral prodrug nucleoside cyclophosphate compound and uses thereof” (ZHEJIANG PALO ALTO PHARMACEUTICALS, INC, priority 2016, dated 2020).
Where a name gives a salt, the structure may show the parent alone. Read-outs that look alike come from different tables or passages of the source.

Key:
[1] = Formation of active molecules by in vitro metabolism with human liver microsomes; assay type: in vitro ADME; settings: 25 μM, pH 7.4
Procedure: Human liver microsomes used herein were purchased from In Vitro Technologies (IVT) Inc., Batch No.: SSP X008070, a mixed liver microsome extracted from the liver tissues of 150 donors. The metabolic activity of CYP3A4 in the liver microsomes of this batch was recorded in the product description to be 1.734 nmol/mg/min (a rate of metabolizing testosterone into […]). The test compounds were synthesized by Zhejiang Paloalto Pharmaceutical Technology Co., Ltd., and dissolved in methanol to produce a 25 mM stock solution. The enzymatic reaction was carried out in 100 μL of a reaction solution (100 mM Tris-HCl, 5 mM MgCl2, pH 7.4) at a test compound concentration of 25 μM and a human liver microsome concentration of 2 mg/mL, and NADPH was added to start the reaction (with a final concentration of 2 mM). After the reaction was performed in a constant temperature shaking water bath for 5 minutes, acetonitrile was quickly added to terminate the reaction at 1.5 times the volume of the reaction mixture. The collected samples were centrifuged at a maximum speed of 13,600 rpm for 20 minutes using an Eppendorf table top centrifuge. The supernatant was collected and dried with a nitrogen evaporator, and then redissolved with mobile phase A, which was an aqueous solution containing 5 mM of ammonium acetate and 0.05% formic acid by volume. The resulting solution was subjected to quantitative analysis using LS-MS/MS (Waters, Acquity UPLC HSS T3 column).

[2] = Procedure: Male SD rats weighing 180-300 g were provided by Shanghai Sippr-BK Laboratory Animals Co., Ltd. Male animals were adapted to the environment for more than 3 days and fasted for 12 hours but without water deprivation at the night before the experiment. PA1010 (compound 4-cis), PA1007 (compound 6-cis), TAF and TDF were respectively dissolved in a normal saline to prepare their corresponding solutions. Before the administration, the animal's body weight was checked whether it met the experimental requirements. 12 rats were selected for grouping, 2 rats in each group, and were intragastrically administered with a drug solution at 30 mg/kg. Rats were euthanized with carbon dioxide gas at 0.5, 1, 3, 6, 12 and 24 h, respectively. Blood samples were collected from the heart and stored in a heparin anticoagulation tube. Then the samples were centrifuged at 4° C. and 6,000 rpm for 5 minutes, and the plasma supernatant was stored in ice. The kidney and liver tissues of the rats were collected and rinsed with normal saline pre-cooled at 4° C., and then stored in ice after water was drained. After the experiment, the samples were stored at −80° C. in a refrigerator.
The kidney and liver tissues were disrupted and mixed thoroughly in normal saline 5 times the volume of the kidney and liver tissues to obtain a tissue homogenate sample. 100 μL of the rat plasma or tissue homogenate sample was mixed uniformly with 100 μL of 10% trichloroacetic acid precipitant containing 50 ng/mL of adefovir (internal standard) and the solvent thereof was prepared by methanol and acetonitrile in a volume ratio of 50:50. The mixture was centrifuged at 4° C. and 6000 rpm for 5 minutes, and all supernatant was treated with a SPE microextraction plate (MCX μElution Plate 30 μm, Waters). Finally, the microextraction plate was eluted with a methanol solution containing 5% ammonia, and 75 μL of the obtained eluent was transferred to a 384-well sample plate for analysis with an injection volume of 1 μL.
LC-MS/MS-AJ (Triple Quad 5500, AB SCIEX) was used for sample analysis. The chromatographic conditions were shown as follows: chromatographic column: Acquity UPLC HSS T3 (2.1×50 mm, 1.8 μm); column temperature: 40° C.; flow rate: 0.5 mL/min; mobile phase A: 0.1% formic acid aqueous solution and mobile phase B: an acetonitrile solution. The mass spectrometry conditions corresponding to the internal standard were shown as follows: electrospray ionization (ESI): positive ion mode; ion pair m/z monitored by multiple reaction monitoring (MRM): 288/176 (PMPA), 274/162 (PMEA); capillary voltage: 3.0 kV; temperature: 500° C.; desolvation gas flow: 1000 L/h; scanning time: 0.025 seconds; and collision energy: 25 V.
Bar charts of the concentration of PMPA in plasma, liver and kidney corresponding to time were respectively plotted. The area (AUC0-t) under the tissue concentration-time curve of PMPA was fitted using the log-linear trapezoidal method in a non-compartmental model of WinNonLin 6.2.1 (Pharsight, CA). The ratios of liver to kidney and liver to plasma of PMPA were obtained by calculating the ratio of their corresponding AUC0-t.

[3] = male, SD, rat, in vivo, po, 30 mg/kg
[4] = rats, intragastric 30 mg/kg, 0.5-24 h, kidney
[5] = rats, intragastric 30 mg/kg, 0.5-24 h
[6] = rats, intragastric 30 mg/kg, 0.5-24 h, plasma

Compound | Average rate of PMPA production in 5 minutes [1] | Exposure (AUC0-t) of the active molecule PMPA in kidney [2, 4] | Exposure (AUC0-t) of the active molecule PMPA in liver [2, 5] | Exposure (AUC0-t) of the active molecule PMPA in plasma [2, 6] | also measured
C[C@H](Cn1cnc2c(N)ncnc21)OCP1(=O)OCC[C@@H](c2cccc(Cl)c2F)O1 (mixture of isomers) [Compound 1, (2R)-9-{2-[(4S)-4-(3-chloro-2-fluorophenyl)-2-oxo-1,3,2-dioxaphosphorinan-2-yl]methoxypropyl}adenine] | 33.8 pmol/min/mg HLM |  |  |  | 
C[C@H](Cn1cnc2c(N)ncnc21)OCP1(=O)OCC[C@@H](c2cc(F)cc(Cl)c2)O1 (mixture of isomers) [Compound 2, (2R)-9-{2-[(4S)-4-(3-chloro-5-fluorophenyl)-2-oxo-1,3,2-dioxaphosphorinan-2-yl]methoxypropyl}adenine] | 46.8 pmol/min/mg HLM |  |  |  | 
C[C@H](Cn1cnc2c(N)ncnc21)OCP1(=O)OCC[C@@H](c2ccc(F)c(Cl)c2)O1 (mixture of isomers) [Compound 3, (2R)-9-{2-[(4S)-4-(3-chloro-4-fluorophenyl)-2-oxo-1,3,2-dioxaphosphorinan-2-yl]methoxypropyl}adenine] | 22.2 pmol/min/mg HLM |  |  |  | 
C[C@H](Cn1cnc2c(N)ncnc21)OCP1(=O)OCC[C@@H](c2cccc(Cl)c2)O1 (mixture of isomers) [Compound 7, (2R)-9-{2-[(4S)-4-(3-chlorophenyl)-2-oxo-1,3,2-dioxaphosphorinan-2-yl]methoxypropyl}adenine, reference compound] | 27.5 pmol/min/mg HLM |  |  |  | 
C[C@H](Cn1cnc2c(N)ncnc21)OC[P@@]1(=O)OCC[C@@H](c2cc(Cl)ccc2F)O1 [Compound 4-cis, (2R)-9-{2-[(2R, 4S)-4-(5-chloro-2-fluorophenyl)-2-oxo-1,3,2-dioxaphosphorinan-2-yl]methoxypropyl}adenine] |  |  |  |  | exposure level of PMPA in the liver, times that released from TAF ([2]; male, SD, rat, in vivo): 1.5 times; exposure level of PMPA in the liver, times that released from TDF ([2]; male, SD, rat, in vivo): 2.9 times; Liver-kidney Ratio of PMPA AUC0-t [2, 3]: 1.0; Liver-plasma Ratio of PMPA AUC0-t [2, 3]: 51.4; PMPA level in liver tissues compared with TAF and TDF at the corresponding time points ([2]; rat, in vivo): significantly higher; exposure level of PMPA in the kidney compared with TAF and TDF ([2]; rat, in vivo): significantly lower; Exposure (AUC0-t) of the active molecule PMPA in kidney ([2]; rat, in vivo, po, 30 mg/kg): 234298 ng·h/g; Exposure (AUC0-t) of the active molecule PMPA in plasma ([2]; rat, in vivo, po, 30 mg/kg): 4332 ng·h/g
C[C@H](Cn1cnc2c(N)ncnc21)OC[P@@]1(=O)OCC[C@@H](c2cc(F)cc(Cl)c2)O1 [Compound 6-cis, (2R)-9-{2-[(2R, 4S)-4-(3-chloro-5-fluorophenyl)-2-oxo-1,3,2-dioxaphosphorinan-2-yl]methoxypropyl}adenine] | 75.8 pmol/min/mg HLM | 65393 ng·h/g | 76075 ng·h/g | 1272 ng·h/g | exposure level of PMPA in the kidney compared with TAF and TDF ([2]; rats, intragastric 30 mg/kg): significantly lower
CC(C)OC(=O)[C@H](C)N[P@](=O)(CO[C@H](C)Cn1cnc2c(N)ncnc21)Oc1ccccc1 [TAF, tenofovir alafenamide, reference compound] |  | 297233 ng·h/g | 148407 ng·h/g | 4892 ng·h/g | 
CC(C)OC(=O)OCOP(=O)(CO[C@H](C)Cn1cnc2c(N)ncnc21)OCOC(=O)OC(C)C [TDF, tenofovir disoproxil fumarate, reference compound] |  | 319562 ng·h/g | 78050 ng·h/g | 3097 ng·h/g | 
